These results are taken from EPA's ToxValDB 9.5 (doi:10.2903/j.efsa.2009.310r).

Values after ≈ are worked out from the molar mass of the structure shown. Values joined by “and” are separate entries in the source; they are usually repeats but may differ in a detail not shown here. Equal entries are not always repeated.

For orientation: NOAEL means the highest tested level that showed no adverse finding.

In data set [1] the test system is Tagia sp.
The subject of data set [2] is Phasianus sp. Particulars: acute, oral, unspecified, mortality.
In data set [3] the test system is Bibionidae. To be noted: chronic/long-term; duration: 28 days.
In data set [4] the test system is Ceriodaphnia dubia. Particulars: chronic/long-term; duration: 7 days; reproduction.
Data set [5] has as its system Folsomia candida. To be noted: chronic/long-term; duration: 28 days.
The subject of data set [6] is Hypoaspis aculeifer. To be noted: chronic/long-term; duration: 28 days.
The test system of data set [7] is Rattus norvegicus. Particulars: mortality.
The subject of data set [8] is Colinus virginianus. Particulars: acute, oral, mortality; for LC50: diet.
Data set [9] relates to Coturnix coturnix. To be noted: acute, oral, mortality.
In data set [10] the test system is Anas platyrhynchos. To be noted: oral, mortality; for LD50: acute, unspecified; for LC50: short-term, feed.
Data set [11] has as its system Lepomis macrochirus. Particulars: acute; duration: 96 hours; mortality.
Data set [12] deals with Apis mellifera. To be noted: acute; dermal; mortality.
Data set [13] has as its system Anas platyrhynchos. Briefly: LC10; higher = less toxic. To be noted: short-term; duration: 14 days; oral; feed; mortality.

Consider `CNC(=O)Oc1cccc2c1OC(C)(C)C2` [Carbofuran], for which the LC50 in [1] (acute, duration: 14 days, mortality) was over 50 mg/kg; in [8] (duration: 5 days), 114 mg/kg-day; in [8] (duration: 7 days), 20.8 mg/kg-day; in [8] (duration: 14 days), 15.8 mg/kg-day; in data set [10] (duration: 5 days), 10 mg/kg-day and 17 mg/kg-day; in data set [10] (duration: 14 days) it was 1.6 mg/kg-day. In [11], this compound had an LC50 of 0.18 µg/mL (≈ 0.814 µM). Moreover, the NOEC in data set [1] (chronic/long-term, duration: 56 days) is under 0.84 mg/kg; in data set [3], 0.0032 mg/L; in [4] it was 0.00016 mg/L; in data set [5], 0.21 mg/kg; in data set [6] it was 10.4 mg/kg. Moreover, the LD50 in data set [2] (F) is 6.2 mg/kg-day; in data set [2] (M), 4 mg/kg-day; in data set [7] (acute, oral) it was under 5.6 mg/kg-day; in [8] (M/F), 8 mg/kg-day; in data set [9] (F) it was 3.5 mg/kg-day; in data set [9] (M), 4.9 mg/kg-day. In addition, the LD50 came out at 0.86 mg/kg-day in [10] (F), 0.76 mg/kg-day in [10] and 0.0357 µg/piece in data set [12]. This compound registered a no-observed-adverse-effect level (NOAEL) in data set [7] (chronic) of 0.1 mg/kg-day. The same compound displayed an LC10 in data set [13] of 0.64 mg/kg-day.
